Measurements as given in patent US20040086607A1, “Food astringency evaluating method and astringency evaluating apparatus” (SAPPORO BREWERIES LIMITED, priority 2001, published 2004).

How the values were obtained:
Type in all cases: binding
gelatin [1] = assay: change in frequency with gelatin sensor (quartz oscillator with gelatin immobilized on the electrode); conditions: catechin 2 ppm and 6 ppm; for change in frequency: gelatin sensor in distilled water, up to 4 minutes after addition, quercetin and epicatechin 20 μM
Method: First, the gold electrode (diameter: 5 mm) of a sensor equipped with a quartz oscillator (Fragrance Sensor SF-105, product of Sogo Pharmaceutical Co., Ltd.) was immersed in 20 ml of a 1.2 N sodium hydroxide solution for 20 minutes, after which the electrode surface was washed with 500 ml of distilled water and immersed in 1.2 N dilute hydrochloric acid for 2 minutes. The electrode surface was then washed with distilled water and immersed in 12 N concentrated hydrochloric acid for 5 minutes, and the electrode was subsequently washed thoroughly with distilled water and dried at 100° C. for 20 minutes to obtain a quartz oscillator having hydroxyl groups arranged on the electrode surface.
After air-cooling the quartz oscillator, it was immersed in 0.3 ml of a 2% 3-aminopropyltriethoxysilane/acetone solution and allowed to stand at room temperature for 20 hours to introduce amino groups on to the electrode surface. The quartz oscillator was then subjected to ultrasonic washing treatment in 20 ml of acetone and dried at 70° C. for 90 minutes.
Next, 30 μl of 2.5% glutaraldehyde/20 mM phosphate buffer solution (pH 7.0) was placed on the amino group-introduced electrode surface, and the electrode was allowed to stand at room temperature for 2 hours. After then washing the electrode surface in 20 ml of 20 mM phosphate buffer solution and 20 ml of distilled water, it was mounted on an aqueous phase measuring sensor. […]
First, the sensor element measuring section of the gelatin sensor was immersed for 30 seconds in 100 ml of distilled water, and stabilization of frequency was confirmed. Next, 0.1 ml of a catechin/ethanol solution was added to the distilled water, and the change in frequency was measured up to 4 minutes after addition. […]
The change in frequency was also measured in the same manner as above except that quercetin/ethanol solutions and epicatechin/ethanol solutions were used instead of the catechin/ethanol solutions, and the astringency component concentration after addition to the distilled water was adjusted to 20 μM. […]

bovine serum albumin = biological target: T1, bovine serum albumin (Bos taurus, UniProt P02769); assay: change in frequency with lipid membrane sensor, complex with bovine serum albumin; conditions: bovine serum albumin in acetate buffer, 4 minutes after adding, tannic acid 8 mg/l, polyphenone 100 50 mg/l, FIG. 11
T1 construct: purchased Wako Junyaku Kogyo
Method: (§1) The electrode of a sensor equipped with a quartz oscillator (Fragrance Sensor SF-105, product of Sogo Pharmaceutical Co., Ltd.) was coated with a lipid membrane composed of dioctadecylammonium polystyrenesulfonic acid to obtain a lipid membrane sensor.
The change in frequency was also measured in the same manner as above except that gelatin (Aldrich Chemical Company, Inc.) or bovine serum albumin (Wako Junyaku Kogyo) was used instead of the mouse proline-rich peptide, and tannic acid (concentration after addition to buffer solution [hereunder referred to simply as “concentration in buffer solution”]: 8 mg/l, and polyphenone 100 (concentration in buffer solution: 50 mg/l) were added. As comparative tests, the same measurement was conducted using sucrose (sweet component, concentration in buffer solution: 1.7 mM), quinine sulfate (bitter component, concentration in buffer solution: 0.27 μM), tartaric acid (acidic component, concentration in buffer solution: 14 μM), NaCl (salty component, concentration in buffer solution: 1.1 mM) and glutamic acid (acidic/savory component, concentration in buffer solution: 30 μM). Also, the change in frequency during 4 minutes after adding different components using bovine serum albumin is shown in FIG. 11.

gelatin [2] = assay: change in frequency with lipid membrane sensor, complex with gelatin
Method: as §1
The change in frequency was also measured in the same manner as above except that gelatin (Aldrich Chemical Company, Inc.) or bovine serum albumin (Wako Junyaku Kogyo) was used instead of the mouse proline-rich peptide, and tannic acid (concentration after addition to buffer solution [hereunder referred to simply as “concentration in buffer solution”]: 8 mg/l, and polyphenone 100 (concentration in buffer solution: 50 mg/l) were added. As comparative tests, the same measurement was conducted using sucrose (sweet component, concentration in buffer solution: 1.7 mM), quinine sulfate (bitter component, concentration in buffer solution: 0.27 μM), tartaric acid (acidic component, concentration in buffer solution: 14 μM), NaCl (salty component, concentration in buffer solution: 1.1 mM) and glutamic acid (acidic/savory component, concentration in buffer solution: 30 μM). Also, the change in frequency during 4 minutes after adding different components using bovine serum albumin is shown in FIG. 11. […]

[3] = tested on: mouse proline-rich peptide; assay: change in frequency with lipid membrane sensor, complex with mouse proline-rich peptide; conditions: FIG. 9
Source text: as §1
The obtained astringency evaluating apparatus was used for measurement of the change in frequency corresponding to adsorption on to the lipid membrane by complex between proline-rich peptide and tannic acid.
First, the sensor element measuring section of the lipid membrane sensor was immersed in a 25 mM acetate buffer solution (pH 4.3) dissolving 50, 100 or 150 mg/l of mouse proline-rich peptide (Sawady Technologies), and stabilization of frequency was confirmed. Next, 0.1 ml of tannic acid was added to each mouse proline-rich peptide/acetate buffer solution, and the change in frequency was measured up to 5 minutes after addition. For the measurement, the tannic acid concentration of the buffer solution immediately after tannic acid addition was 8 mg/l.

T1 sequence (P02769 25-607): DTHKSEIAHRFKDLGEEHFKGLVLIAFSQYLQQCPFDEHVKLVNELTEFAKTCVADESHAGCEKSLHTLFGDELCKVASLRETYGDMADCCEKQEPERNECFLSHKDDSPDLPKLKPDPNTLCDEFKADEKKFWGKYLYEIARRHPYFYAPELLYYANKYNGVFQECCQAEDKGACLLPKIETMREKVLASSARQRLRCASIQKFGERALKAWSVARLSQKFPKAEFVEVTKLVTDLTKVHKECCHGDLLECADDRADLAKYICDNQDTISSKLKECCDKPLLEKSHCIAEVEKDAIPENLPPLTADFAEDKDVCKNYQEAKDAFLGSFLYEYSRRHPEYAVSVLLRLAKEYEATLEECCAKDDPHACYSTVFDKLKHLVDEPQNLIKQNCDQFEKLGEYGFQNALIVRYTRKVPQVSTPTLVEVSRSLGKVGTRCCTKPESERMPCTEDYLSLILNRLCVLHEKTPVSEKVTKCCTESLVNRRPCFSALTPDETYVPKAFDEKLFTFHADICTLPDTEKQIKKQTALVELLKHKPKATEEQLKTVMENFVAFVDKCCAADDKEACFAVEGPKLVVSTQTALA

Row | Molecule | change in frequency (gelatin [1]) | change in frequency (bovine serum albumin) | correlation between tannic acid concentration and change in frequency (gelatin [2]; 10 mg/l gelatin/25 mM acetate buffer solution, FIG. 12) | change in frequency (gelatin [2]; gelatin in acetate buffer, 4 minutes after adding, tannic acid 8 mg/l, polyphenone 100 50 mg/l, FIG. 10) | change in frequency ([3]; 25 mM acetate buffer pH 4.3, mouse proline-rich peptide 50, 100 or 150 mg/l, tannic acid 8 mg/l, up to 5 minutes) | change in frequency versus concentration ([3]; mouse proline-rich peptide) | change in frequency versus catechin concentration (gelatin [1]; gelatin sensor, FIG. 5)
1 | O=c1c(O)c(-c2ccc(O)c(O)c2)oc2cc(O)cc(O)c12 [quercetin] | notable change in frequency | – | – | – | – | – | –
2 | O=C(OC[C@H]1O[C@@H](OC(=O)c2cc(O)c(O)c(OC(=O)c3cc(O)c(O)c(O)c3)c2)[C@H](OC(=O)c2cc(O)c(O)c(OC(=O)c3cc(O)c(O)c(O)c3)c2)[C@@H](OC(=O)c2cc(O)c(O)c(OC(=O)c3cc(O)c(O)c(O)c3)c2)[C@@H]1OC(=O)c1cc(O)c(O)c(OC(=O)c2cc(O)c(O)c(O)c2)c1)c1cc(O)c(O)c(OC(=O)c2cc(O)c(O)c(O)c2)c1 [tannic acid] | – | notable change in frequency | adequately satisfactory correlation | notable change in frequency | notable change in frequency | greater with increasing tannic acid concentration | –
3 | catechin | notable change in frequency | – | – | – | – | – | greater with increasing catechin concentration
